US11690377B2, “Herbicidal composition and method of use thereof” (Belchim Crop Protection NV, priority 2017, dated 2023)

Columns and labels:
Format in all cases: in vivo
[1] = system: AMAPA - Palmer Pigweed (Amaranthus palmeri); assay: Field trial, post-emergence weed control in corn, AMAPA; details: mesotrione 3 oz/A, pyridate 6.84 oz/A, combination 3 + 6.84 oz/A
Description: (§1) Field trials were conducted in Tennessee and Illinois (USA). The crop and weed species had been seeded and/or drill sown. In the case of post-emergence evaluation, seeded and/or drill sown plants were grown to a certain growth stage before application of the active ingredients (alone or as a mixture). In the case of pre-emergence evaluation, the application of the active ingredients was carried out after the plants were seeded and/or drilled sown. The trial was in the form of a randomized complete block. The percentage of weed control was assessed in several different instances after treatment until a maximum of 42 days after treatment, by comparison with untreated control plots by visual scoring. The herbicidal action was assessed qualitatively and quantitatively. To quantify the synergic effect resulting from the combination of mesotrione and pyridate, the inventors used the methodology described by Colby, in which a synergistic effect exists when the activity of a composition comprising both active compounds is greater than the sum of the activities of the two active compounds applied individually. The expected activity for the combination of mesotrione and pyridate can be calculated by the following so-called “Colby equation” (see S. R. Colby, “Calculating Synergistic and Antagonistic Responses of Herbicide Combinations”, Weeds 1967, 15, 20-22). Pa+b=(Pa+Pb)−(Pa*Pb/100) Wherein • Pa+b is the expected percent inhibition of weed growth by the combination of mesotrione and pyridate; • Pa is the percent inhibition of weed growth induced by mesotrione; • Pb is the percent inhibition of weed growth induced by pyridate. If the actual percent inhibition of weed growth induced by the combination of mesotrione and pyridate is greater than the expected percent inhibition (Pa+b) calculated from the Colby equation, then the activity of the combination is synergistic. The below Tables represent the herbicidal performance of the composition according to the invention, and also the herbicidal performance of the active ingredients alone, in controlling specific weeds. The expected percent inhibition of weed growth (derived from the Colby's equation) and the actual (observed) percent inhibition of weed growth is also presented in order to conclude on the synergistic effect of the combination according to the invention. Post-Emergence Herbicidal Performance of the Composition According to the Invention Against Broadleaf Weed in Corn.

[2] = system: IPOHE - Ivyleaf Morningglory (Ipomoea headrace); assay: Field trial, post-emergence weed control in corn, IPOHE
Description: as §1

[3] = system: IPOHE - Ivyleaf Morningglory (Ipomoea headrace); assay: Field trial, pre-emergence weed control in corn, IPOHE; details: mesotrione 3.85, pyridate 6.84, combination 3.85 + 6.84 (rate unit not given)
Description: (§2) Field trials were conducted in Tennessee and Illinois (USA). The crop and weed species had been seeded and/or drill sown. In the case of post-emergence evaluation, seeded and/or drill sown plants were grown to a certain growth stage before application of the active ingredients (alone or as a mixture). In the case of pre-emergence evaluation, the application of the active ingredients was carried out after the plants were seeded and/or drilled sown. The trial was in the form of a randomized complete block. The percentage of weed control was assessed in several different instances after treatment until a maximum of 42 days after treatment, by comparison with untreated control plots by visual scoring. The herbicidal action was assessed qualitatively and quantitatively. To quantify the synergic effect resulting from the combination of mesotrione and pyridate, the inventors used the methodology described by Colby, in which a synergistic effect exists when the activity of a composition comprising both active compounds is greater than the sum of the activities of the two active compounds applied individually. The expected activity for the combination of mesotrione and pyridate can be calculated by the following so-called “Colby equation” (see S. R. Colby, “Calculating Synergistic and Antagonistic Responses of Herbicide Combinations”, Weeds 1967, 15, 20-22). Pa+b=(Pa+Pb)−(Pa*Pb/100) Wherein • Pa+b is the expected percent inhibition of weed growth by the combination of mesotrione and pyridate; • Pa is the percent inhibition of weed growth induced by mesotrione; • Pb is the percent inhibition of weed growth induced by pyridate. If the actual percent inhibition of weed growth induced by the combination of mesotrione and pyridate is greater than the expected percent inhibition (Pa+b) calculated from the Colby equation, then the activity of the combination is synergistic. The below Tables represent the herbicidal performance of the composition according to the invention, and also the herbicidal performance of the active ingredients alone, in controlling specific weeds. The expected percent inhibition of weed growth (derived from the Colby's equation) and the actual (observed) percent inhibition of weed growth is also presented in order to conclude on the synergistic effect of the combination according to the invention. Pre-Emergence Herbicidal Performance of the Composition According to the Invention Against Broadleaf Weed in Corn.

[4] = system: AMAPA - Palmer Pigweed (Amaranthus palmeri); assay: Field trial, pre-emergence weed control in corn, AMAPA; details: mesotrione 3.85 oz/A, pyridate 6.84 oz/A, combination 3.85 + 6.84 oz/A
Description: as §2

[5] = system: AMATA - Common Waterhemp (Amaranthus rudis); assay: Field trial, post-emergence weed control in corn, AMATA
Description: as §1

[6] = system: ELEIN - Goosegrass (Eleusine indica); assay: Field trial, pre-emergence weed control in corn, ELEIN; details: mesotrione 3.85 oz/A, pyridate 6.84 oz/A, combination 3.85 + 6.84 oz/A
Description: as §2

[7] = system: SETVI - Green foxtail (Setaria viridis); assay: Field trial, post-emergence weed control in corn, SETVI
Description: Field trials were conducted in Tennessee and Illinois (USA). The crop and weed species had been seeded and/or drill sown. In the case of post-emergence evaluation, seeded and/or drill sown plants were grown to a certain growth stage before application of the active ingredients (alone or as a mixture). In the case of pre-emergence evaluation, the application of the active ingredients was carried out after the plants were seeded and/or drilled sown. The trial was in the form of a randomized complete block. The percentage of weed control was assessed in several different instances after treatment until a maximum of 42 days after treatment, by comparison with untreated control plots by visual scoring. The herbicidal action was assessed qualitatively and quantitatively. To quantify the synergic effect resulting from the combination of mesotrione and pyridate, the inventors used the methodology described by Colby, in which a synergistic effect exists when the activity of a composition comprising both active compounds is greater than the sum of the activities of the two active compounds applied individually. The expected activity for the combination of mesotrione and pyridate can be calculated by the following so-called “Colby equation” (see S. R. Colby, “Calculating Synergistic and Antagonistic Responses of Herbicide Combinations”, Weeds 1967, 15, 20-22). Pa+b=(Pa+Pb)−(Pa*Pb/100) Wherein • Pa+b is the expected percent inhibition of weed growth by the combination of mesotrione and pyridate; • Pa is the percent inhibition of weed growth induced by mesotrione; • Pb is the percent inhibition of weed growth induced by pyridate. If the actual percent inhibition of weed growth induced by the combination of mesotrione and pyridate is greater than the expected percent inhibition (Pa+b) calculated from the Colby equation, then the activity of the combination is synergistic. The below Tables represent the herbicidal performance of the composition according to the invention, and also the herbicidal performance of the active ingredients alone, in controlling specific weeds. The expected percent inhibition of weed growth (derived from the Colby's equation) and the actual (observed) percent inhibition of weed growth is also presented in order to conclude on the synergistic effect of the combination according to the invention. […]

[8] = 8 days after treatment, mesotrione 2 oz/A, pyridate 2 oz/A, combination 2 + 2 oz/A
[9] = 8 days after treatment, mesotrione 3 oz/A, pyridate 3 oz/A, combination 3 + 3 oz/A
[10] = 8 days after treatment, mesotrione 3 oz/A, pyridate 6.84 oz/A, combination 3 + 6.84 oz/A
[11] = 16 days after treatment, mesotrione 2 oz/A, pyridate 2 oz/A, combination 2 + 2 oz/A
[12] = 16 days after treatment, mesotrione 3 oz/A, pyridate 3 oz/A, combination 3 + 3 oz/A
[13] = 16 days after treatment, mesotrione 3 oz/A, pyridate 6.84 oz/A, combination 3 + 6.84 oz/A
[14] = 21 days after treatment, mesotrione 2 oz/A, pyridate 2 oz/A, combination 2 + 2 oz/A
[15] = 21 days after treatment, mesotrione 3 oz/A, pyridate 3 oz/A, combination 3 + 3 oz/A
[16] = 21 days after treatment, mesotrione 3 oz/A, pyridate 6.84 oz/A, combination 3 + 6.84 oz/A
[17] = 7 days after treatment, mesotrione 2 oz./A, pyridate 2 oz./A, combination 2 + 2 oz./A
[18] = 7 days after treatment, mesotrione 3 oz./A, pyridate 3 oz./A, combination 3 + 3 oz./A
[19] = 7 days after treatment, mesotrione 3 oz./A, pyridate 6.84 oz./A, combination 3 + 6.84 oz./A
[20] = 14 days after treatment, mesotrione 2 oz./A, pyridate 2 oz./A, combination 2 + 2 oz./A
[21] = 14 days after treatment, mesotrione 3 oz./A, pyridate 3 oz./A, combination 3 + 3 oz./A
[22] = 14 days after treatment, mesotrione 3 oz./A, pyridate 6.84 oz./A, combination 3 + 6.84 oz./A
[23] = 28 days after treatment, mesotrione 2 oz./A, pyridate 2 oz./A, combination 2 + 2 oz./A
[24] = 28 days after treatment, mesotrione 3 oz./A, pyridate 3 oz./A, combination 3 + 3 oz./A
[25] = 28 days after treatment, mesotrione 3 oz./A, pyridate 6.84 oz./A, combination 3 + 6.84 oz./A
[26] = 14 days after treatment, mesotrione 2 oz/A, pyridate 2 oz/A, combination 2 + 2 oz/A
[27] = 14 days after treatment, mesotrione 3 oz/A, pyridate 3 oz/A, combination 3 + 3 oz/A
[28] = 38 days after treatment, mesotrione 2 oz/A, pyridate 2 oz/A, combination 2 + 2 oz/A
[29] = 38 days after treatment, mesotrione 3 oz/A, pyridate 3 oz/A, combination 3 + 3 oz/A

Row | Structure (SMILES) | Mean percentage of weed control (observed) ([1]; 8 days after treatment) | Mean percentage of weed control (observed) ([1]; 16 days after treatment) | Mean percentage of weed control (observed) ([1]; 21 days after treatment) | Mean percentage of weed control (observed) [2, 8] | Mean percentage of weed control (observed) [2, 9] | Mean percentage of weed control (observed) [2, 10] | Mean percentage of weed control (observed) [2, 11] | Mean percentage of weed control (observed) [2, 12] | Mean percentage of weed control (observed) [2, 13] | Mean percentage of weed control (observed) [2, 14] | Mean percentage of weed control (observed) [2, 15] | Mean percentage of weed control (observed) [2, 16] | Mean percentage of weed control (observed) ([3]; 7 days after treatment) | Mean percentage of weed control (observed) ([3]; 14 days after treatment) | Mean percentage of weed control (observed) ([3]; 28 days after treatment) | Mean percentage of weed control (observed) ([3]; 42 days after treatment) | Mean percentage of weed control (observed) ([4]; 7 days after treatment) | Mean percentage of weed control (observed) ([4]; 14 days after treatment) | Mean percentage of weed control (observed) ([4]; 28 days after treatment) | Mean percentage of weed control (observed) ([4]; 42 days after treatment) | further results
1 | CS(=O)(=O)c1ccc(C(=O)C2C(=O)CCCC2=O)c([N+](=O)[O-])c1 [mesotrione, Mesotrione] | 53% | 55% | 55% | 43% | 68% | 65% | 35% | 63% | 78% | 38% | 60% | 75% | 62% | 64% | 40% | 34% | 62% | 64% | 40% | 34% | Mean percentage of weed control (observed) [5, 17]: 73%; Mean percentage of weed control (observed) [5, 18]: 73%; Mean percentage of weed control (observed) [5, 19]: 68%; Mean percentage of weed control (observed) [5, 20]: 75%; Mean percentage of weed control (observed) [5, 21]: 73%; Mean percentage of weed control (observed) [5, 22]: 80%; Mean percentage of weed control (observed) [5, 23]: 73%; Mean percentage of weed control (observed) [5, 24]: 68%; Mean percentage of weed control (observed) [5, 25]: 85%; Mean percentage of weed control (observed) ([6]; 7 days after treatment): 65%; Mean percentage of weed control (observed) ([6]; 14 days after treatment): 78%; Mean percentage of weed control (observed) [7, 26]: 48%; Mean percentage of weed control (observed) [7, 27]: 58%; Mean percentage of weed control (observed) [7, 14]: 50%; Mean percentage of weed control (observed) [7, 15]: 60%; Mean percentage of weed control (observed) [7, 28]: 50%; Mean percentage of weed control (observed) [7, 29]: 60%
2 | CCCCCCCCSC(=O)Oc1cc(Cl)nnc1-c1ccccc1 [pyridate, Pyridate] | 23% | 33% | 33% | 28% | 40% | 10% | 18% | 10% | 23% | 18% | 10% | 23% | 37% | 42% | 20% | 20% | 37% | 42% | 20% | 20% | Mean percentage of weed control (observed) [5, 17]: 0%; Mean percentage of weed control (observed) [5, 18]: 0%; Mean percentage of weed control (observed) [5, 19]: 10%; Mean percentage of weed control (observed) [5, 20]: 0%; Mean percentage of weed control (observed) [5, 21]: 0%; Mean percentage of weed control (observed) [5, 22]: 12%; Mean percentage of weed control (observed) [5, 23]: 0%; Mean percentage of weed control (observed) [5, 24]: 0%; Mean percentage of weed control (observed) [5, 25]: 6%; Mean percentage of weed control (observed) ([6]; 7 days after treatment): 37%; Mean percentage of weed control (observed) ([6]; 14 days after treatment): 37%; Mean percentage of weed control (observed) [7, 26]: 10%; Mean percentage of weed control (observed) [7, 27]: 10%; Mean percentage of weed control (observed) [7, 14]: 10%; Mean percentage of weed control (observed) [7, 15]: 10%; Mean percentage of weed control (observed) [7, 28]: 10%; Mean percentage of weed control (observed) [7, 29]: 10%
